{"source": "paper PMC3700763", "about": "“First human dose-escalation study with remogliflozin etabonate, a selective inhibitor of the sodium-glucose transporter 2 (SGLT2), in healthy subjects and in subjects with type 2 diabetes mellitus” (BMC Pharmacology & Toxicology, 2013)", "format_in_all_cases": "in vivo, human", "key": {"[1]": {"experiment": "Plasma glucose, healthy subjects", "details": "mean, very similar between placebo and remogliflozin etabonate periods", "experimental": "(§1) Blood samples for glucose were taken at 0 (pre-dose), and 1, 2, 4, 8 and 12 h after dosing in each treatment period (Part A). For Part B, blood samples for glucose, insulin and GLP-1 were taken at check-in on day -2, and at 0 h (pre-dose), and 0.5, 1, 1.5, 2, 4 h (prior to lunch), 4.5, 5, 6, 8, 10, 12 and 24 h after dosing on day 1 of each treatment period.\n(§2) For glucose, plasma was analyzed using a YSI 2300 Glucose Analyzer (Yellow Springs International Life Sciences, Yellow Springs, OH, USA). For insulin, plasma was rapidly prepared and frozen at -70°C until analyzed by LabCorp (San Diego, CA, USA) using a chemiluminescent immunometric assay method (Siemen’s Immulite 2000 analyzer with Immulite Insulin Kit L2KIN2)."}, "[2]": {"experiment": "Plasma glucose, insulin and intact GLP-1 after 50 g OGTT, T2DM subjects", "details": "for median baseline adjusted AUC(0–4) for plasma GLP-1 following an OGTT: placebo 6.36", "experimental": "(§3) All subjects were admitted to the unit two nights prior to receiving study drug to establish baseline safety parameters and fluid intake levels over a 36 h period. Subjects remained in the unit for at least 24 h after doses were administered for monitoring of clinical laboratory parameters exploratory biomarkers, vital signs, ECGs and adverse events. While confined to the clinical research unit, all subjects received meals standardized with respect to calories, fat, protein, carbohydrate, and sodium content; however, detailed dietary information was not captured in this study. In Part A, subjects were dosed following an overnight fast; lunch and dinner were provided at 4 and 10 h after dosing, respectively. Fifteen minutes after dosing in each treatment period in Part B, a fasting OGTT was performed using 50 g glucose (administered as 50 g Glucola™). A 50 g glucose load was chosen since the OGTT was being performed in subjects already known to have diabetes. The glucose drink was consumed by subjects within approximately 5 minutes. Blood samples for the measurement of glucose, insulin, and intact glucagon-like peptide 1 (GLP-1) were collected for 24 hours following dose administration. Provided that there were no safety or tolerability concerns, subjects were released from the clinic on day 2 of each treatment period until their return for the next treatment or follow-up period. Each subject was involved in the study for approximately 8 weeks (from screening to follow-up).\nas §1, §2\nFor assay of intact GLP-1, blood was collected into a chilled EDTA tube and protease inhibitors (DPP4 inhibitor obtained from EMD Millipore, St. Charles, MO) were immediately added. Samples were then spun down and plasma split into two separate tubes and frozen at -70°C until analyzed by Pathway Diagnostics (Malibu, CA, USA) by ELISA (kit # EGLP-35 K, EMD Millipore). The lowest level of intact GLP-1 this assay can detect is 2 pM (with a minimum plasma sample size of 0.4 mL)."}, "[3]": {"experiment": "Adverse events after single oral doses, T2DM subjects (Part B)", "details": "for At least one adverse event: n = 6", "experimental": "This double-blind, randomized, placebo-controlled, single escalating-dose crossover study was conducted in two parts: Part A consisted of a randomized, dose-escalation in healthy subjects; Part B was of similar design, but conducted in subjects with T2DM and included an evaluation of pharmacodynamics using a 50 g oral glucose tolerance test (OGTT).\nSix subjects with T2DM received two doses of remogliflozin etabonate and a placebo dose, in a randomized, dose escalating, crossover design, along with an oral glucose load on three study sessions separated by 7–14 days. Full PK and safety profiles were measured on Day 1 of each dosing period. The doses selected for this portion of the study, 50 mg and 500 mg, were based on data obtained in Part A. In each dosing period, subjects were assigned to active vs placebo in a 2:1 ratio.\nas §3"}, "[4]": {"experiment": "Fluid balance, T2DM subjects", "details": "mean (SD)", "experimental": "(§4) Urine samples were collected at pre-dose, and over a series of intervals (0–2, 2–4, 4–6, 6–8, 8–12 and 12–24 h post-dose) for the analysis of creatinine, glucose and electrolytes (Na, K and Cl). All fluid intake was recorded, as well as urine volume, over the 24 hours before and after dosing in each treatment period. Urine was tested for protein on the first morning void of day -1 and 24 h after dosing."}, "[5]": {"experiment": "Fluid balance, healthy subjects", "details": "mean (SD)", "experimental": "as §4"}, "[6]": {"details": "-24 h to pre-dose (baseline before dosing), 50 mg period"}, "[7]": {"details": "-24 h to pre-dose (baseline before dosing), 500 mg period"}}, "data": [{"compound": "CCOC(=O)OC[C@H]1O[C@@H](Oc2nn(C(C)C)c(C)c2Cc2ccc(OC(C)C)cc2)[C@H](O)[C@@H](O)[C@@H]1O", "note": "[Remogliflozin etabonate, remogliflozin etabonate]", "values": [{"measurement": "Plasma glucose AUC 0–4 h", "setting": "[1]", "value": "approximately 18 mmol•h/L"}, {"measurement": "Plasma glucose AUC 0–12 h", "setting": "[1]", "value": "55 to 59", "unit": "mmol·h/L"}, {"measurement": "Increases in plasma glucose following an OGTT", "setting": "[2]; 50 mg RE vs placebo, altered little from 50 mg to 500 mg", "value": "clearly attenuated"}, {"measurement": "median baseline adjusted AUC(0–4) for plasma GLP-1 following an OGTT", "setting": "[2]; 50 mg", "value": -8.85, "unit": "pM·h"}, {"measurement": "median baseline adjusted AUC(0–4) for plasma GLP-1 following an OGTT", "setting": "[2]; 500 mg", "value": -1.95, "unit": "pM·h"}, {"measurement": "Plasma insulin following the glucose load", "setting": "[2]; 50 and 500 mg", "value": "no clear trends"}, {"measurement": "Muscle cramp (adverse events reported by >1 subject in total)", "setting": "[3]; 50 mg single oral dose", "value": "1 (17) n (%)"}, {"measurement": "Nausea (drug-related adverse events)", "setting": "[3]; 50 mg single oral dose", "value": "0 n (%)"}, {"measurement": "Pain in extremity (drug-related adverse events)", "setting": "[3]; 50 mg single oral dose", "value": "0 n (%)"}, {"measurement": "β2-microglobulin increased (adverse events reported by >1 subject in total)", "setting": "[3]; 50 mg single oral dose", "value": "0 n (%)"}, {"measurement": "β2-microglobulin increased (drug-related adverse events)", "setting": "[3]; 50 mg single oral dose", "value": "0 n (%)"}, {"measurement": "At least one adverse event", "setting": "[3]; 50 mg single oral dose", "value": "1 (17) n (%)"}, {"measurement": "Muscle cramp (adverse events reported by >1 subject in total)", "setting": "[3]; 500 mg single oral dose", "value": "0 n (%)"}, {"measurement": "Nausea (drug-related adverse events)", "setting": "[3]; 500 mg single oral dose", "value": "1 (17) n (%)"}, {"measurement": "Pain in extremity (drug-related adverse events)", "setting": "[3]; 500 mg single oral dose", "value": "1 (17) n (%)"}, {"measurement": "β2-microglobulin increased (adverse events reported by >1 subject in total)", "setting": "[3]; 500 mg single oral dose", "value": "2 (33) n (%)"}, {"measurement": "β2-microglobulin increased (drug-related adverse events)", "setting": "[3]; 500 mg single oral dose", "value": "1 (17) n (%)"}, {"measurement": "At least one adverse event", "setting": "[3]; 500 mg single oral dose", "value": "2 (33) n (%)"}, {"measurement": "Fluid balance (total fluid intake minus total urine volume)", "setting": "[4]; 0–12 h post-dose, 50 mg", "value": "-78(433) mL"}, {"measurement": "Fluid balance (total fluid intake minus total urine volume)", "setting": "[4]; 0–12 h post-dose, 500 mg", "value": "-29 (749) mL"}, {"measurement": "Fluid balance (total fluid intake minus total urine volume)", "setting": "[4]; 12–24 h post-dose, 50 mg", "value": "-803 (658) mL"}, {"measurement": "Fluid balance (total fluid intake minus total urine volume)", "setting": "[4]; 12–24 h post-dose, 500 mg", "value": "-1088(679) mL"}, {"measurement": "Fluid balance (total fluid intake minus total urine volume)", "setting": "[4]; [6]", "value": "-504 (294) mL"}, {"measurement": "Fluid balance (total fluid intake minus total urine volume)", "setting": "[4]; [7]", "value": "188 (1879) mL"}, {"measurement": "Fluid balance (total fluid intake minus total urine volume)", "setting": "[4]; -24 h to pre-dose (baseline before dosing), 500 mg period, listed as remogliflozin etabonate", "value": "+188 mL"}, {"measurement": "Fluid balance (total fluid intake minus total urine volume)", "setting": "[5]; 0–12 h post-dose, 20 mg", "value": "243 (1161) mL"}, {"measurement": "Fluid balance (total fluid intake minus total urine volume)", "setting": "[5]; 0–12 h post-dose, 50 mg", "value": "-570 (582) mL"}, {"measurement": "Fluid balance (total fluid intake minus total urine volume)", "setting": "[5]; 0–12 h post-dose, 150 mg", "value": "-86 (909) mL"}, {"measurement": "Fluid balance (total fluid intake minus total urine volume)", "setting": "[5]; 0–12 h post-dose, 500 mg", "value": "-159 (531) mL"}, {"measurement": "Fluid balance (total fluid intake minus total urine volume)", "setting": "[5]; 0–12 h post-dose, 1000 mg", "value": "-273 (331) mL"}, {"measurement": "Fluid balance (total fluid intake minus total urine volume)", "setting": "[5]; 12–24 h post-dose, 20 mg", "value": "-581 (387) mL"}, {"measurement": "Fluid balance (total fluid intake minus total urine volume)", "setting": "[5]; 12–24 h post-dose, 50 mg", "value": "-551 (530) mL"}, {"measurement": "Fluid balance (total fluid intake minus total urine volume)", "setting": "[5]; 12–24 h post-dose, 150 mg", "value": "-564 (478) mL"}, {"measurement": "Fluid balance (total fluid intake minus total urine volume)", "setting": "[5]; 12–24 h post-dose, 500 mg", "value": "-424 (334) mL"}, {"measurement": "Fluid balance (total fluid intake minus total urine volume)", "setting": "[5]; 12–24 h post-dose, 1000 mg", "value": "-495(367) mL"}, {"measurement": "Fluid balance (total fluid intake minus total urine volume)", "setting": "[5]; -24 h to pre-dose (baseline before dosing), 20 mg period", "value": "-460 (1311) mL"}, {"measurement": "Fluid balance (total fluid intake minus total urine volume)", "setting": "[5]; [6]", "value": "-338 (525) mL"}, {"measurement": "Fluid balance (total fluid intake minus total urine volume)", "setting": "[5]; -24 h to pre-dose (baseline before dosing), 150 mg period", "value": "-512 (731) mL"}, {"measurement": "Fluid balance (total fluid intake minus total urine volume)", "setting": "[5]; [7]", "value": "-278 (1250) mL"}, {"measurement": "Fluid balance (total fluid intake minus total urine volume)", "setting": "[5]; -24 h to pre-dose (baseline before dosing), 1000 mg period", "value": "-126 (798) mL"}]}]}
